Results published in patent US20260070895A1, “CRYSTALLINE FORMS” (QUIMATRYX, S.L., priority 2022, published 2026).
Entries after “also recorded” stand apart in the source; their conditions may differ.

Assays:
Assay type in all cases: physicochemical
[1] = Photostability at solid state (chemical purity by HPLC after illumination); details: for HPLC peak area, QTX125 RRT 1.00 / HPLC peak area, RRT 1.04 / HPLC peak area, RRT 1.12 / degradation (in words) / colour change of the solid material: solid-state; for degradation (in words): up to 171 hours
Method: (§1) The method for determining purity by HPLC—used throughout these examples—used the following parameters:
(§2) The photostability of novel crystalline forms of QTX125 was assessed at solid state and in solution. Where ‘forced illumination’ conditions were used, samples were illuminated at 12 Klux/hour and 2.8 UV W/m^2/hour. Samples were stored at a temperature of 30° C. Following incubation, the chemical purity of QTX125 was measured by HPLC.
(§3) The following index is provided to aid navigation of the data presented in Tables 3.1.1 to 3.3.6: • 3.1.x—Assessment of the photostability of QTX125 Form 2. • 3.2.x—Assessment of the photostability of amorphous QTX125. • 3.3.x—Assessment of the photostability of the QTX125 1:2 L-Lysine adduct. • 3.x.1—Samples (at solid state) stored in unsealed clear glass bottles, subject to forced illumination. • 3.x.2—Samples (at solid state) sealed under nitrogen in clear glass bottles, subject to forced illumination. • 3.x.3—Samples (at solid state) sealed under nitrogen in amber glass bottles, illuminated under ambient laboratory conditions • 3.x.4—Samples (at solid state) sealed under nitrogen in amber glass bottles, subject to forced illumination. • 3.x.5—Samples (in solution) sealed under nitrogen in amber glass bottles, illuminated under ambient laboratory conditions. • 3.x.6—Samples (in solution) sealed under nitrogen in amber glass bottles, subject to forced illumination.

[2] = Photostability in solution (THF and water), HPLC; details: for HPLC peak area, QTX125 RRT 1.00 / HPLC peak area, RRT 1.04 / HPLC peak area, RRT 1.12 / degradation (in words): in solution (THF and water), sealed under nitrogen in amber glass bottles; for degradation (in words): up to 171 hours
Method: as §1, §2, §3

[3] = Aqueous solubility at 37° C. (HPLC of filtered suspension); details: for peak solubility: at 1 hour
Method: The solubility of novel crystalline forms of QTX125 was assessed in the following aqueous solutions: (i) phosphate buffer, pH 3.5, 0.9% w/v sodium chloride; (ii) phosphate buffer, pH 6.5, 0.9% w/v sodium chloride; (iii) acetate buffer, pH 4.5, 0.9% w/v sodium chloride; (iv) citro-phosphate buffer, pH 4.5, 0.9% w/v sodium chloride; (v) sodium chloride, 0.9% w/v and (vi) deionised water. All assays were completed at 37° C.
In brief, 30 mg QTX125 was dispensed into vessels followed by 5 mL of the appropriate aqueous buffer. Mixtures were suspended by agitation and heated to 37° C. At various fixed intervals, an 0.4 mL aliquot of the suspension was removed, filtered and diluted for examination by HPLC. A single HPLC reference sample was used.

[4] = sealed under nitrogen in amber glass bottles, ambient laboratory conditions, 0 hours
[5] = sealed under nitrogen in amber glass bottles, ambient laboratory conditions, 3 hours
[6] = sealed under nitrogen in amber glass bottles, ambient laboratory conditions, 50 hours
[7] = sealed under nitrogen in amber glass bottles, ambient laboratory conditions, 171 hours
[8] = sealed under nitrogen in amber glass bottles, forced illumination, 171 hours
[9] = sealed under nitrogen in clear glass bottles, forced illumination
[10] = sealed under nitrogen in clear glass bottles, forced illumination, 0 hours
[11] = sealed under nitrogen in clear glass bottles, forced illumination, 3 hours
[12] = sealed under nitrogen in clear glass bottles, forced illumination, 50 hours
[13] = sealed under nitrogen in clear glass bottles, forced illumination, 171 hours
[14] = unsealed clear glass bottles, forced illumination
[15] = unsealed clear glass bottles, forced illumination, 0 hours
[16] = unsealed clear glass bottles, forced illumination, 3 hours
[17] = unsealed clear glass bottles, forced illumination, 50 hours
[18] = unsealed clear glass bottles, forced illumination, 171 hours
[19] = ambient laboratory conditions, 171 hours

SMILES: NCCCC[C@H](N)C(=O)O.NCCCC[C@H](N)C(=O)O.O=C(NO)c1ccc(CNC(=O)c2[nH]c(-c3ccc(O)cc3)cc2-c2ccoc2)cc1 [QTX125 1:2 L-Lysine adduct]
- photostability as compared to amorphous QTX125 ([1]; at solid state): enhanced photostability; also recorded: improved photostability
- HPLC peak area, QTX125 RRT 1.00 [1, 4]: 96.83%
- HPLC peak area, RRT 1.04 [1, 4]: 1.15%
- HPLC peak area, QTX125 RRT 1.00 [1, 5]: 96.82%
- HPLC peak area, RRT 1.04 [1, 5]: 1.21%
- HPLC peak area, QTX125 RRT 1.00 [1, 6]: 97.84%
- HPLC peak area, RRT 1.04 [1, 6]: 0.58%
- HPLC peak area, QTX125 RRT 1.00 [1, 7]: 97.29%
- HPLC peak area, RRT 1.04 [1, 7]: 1.30%
- HPLC peak area, RRT 1.12 [1, 7]: 0.35%
- degradation (in words) ([1]; sealed under nitrogen in amber glass bottles, ambient laboratory conditions): little evidence of degradation
- HPLC peak area, QTX125 RRT 1.00 [1, 8]: 96.27%
- HPLC peak area, RRT 1.04 [1, 8]: 1.74%
- HPLC peak area, RRT 1.12 [1, 8]: 0.59%
- degradation (in words) ([1]; sealed under nitrogen in amber glass bottles, forced illumination): degrades slightly
- colour change of the solid material [1, 9]: A change in the colour of the solid material was not identified
- HPLC peak area, QTX125 RRT 1.00 [1, 10]: 96.83%
- HPLC peak area, RRT 1.04 [1, 10]: 1.15%
- HPLC peak area, QTX125 RRT 1.00 [1, 11]: 95.57%
- HPLC peak area, RRT 1.04 [1, 11]: 1.90%
- HPLC peak area, RRT 1.12 [1, 11]: 0.65%
- HPLC peak area, QTX125 RRT 1.00 [1, 12]: 89.67%
- HPLC peak area, RRT 1.04 [1, 12]: 5.79%
- HPLC peak area, RRT 1.12 [1, 12]: 2.74%
- HPLC peak area, QTX125 RRT 1.00 [1, 13]: 85.21%
- HPLC peak area, RRT 1.04 [1, 13]: 9.04%
- HPLC peak area, RRT 1.12 [1, 13]: 3.94%
- degradation (in words) [1, 9]: degrades under forced illumination to two principal components
- colour change of the solid material [1, 14]: A change in the colour of the solid material was not identified
- HPLC peak area, QTX125 RRT 1.00 [1, 15]: 96.83%
- HPLC peak area, RRT 1.04 [1, 15]: 1.15%
- HPLC peak area, QTX125 RRT 1.00 [1, 16]: 95.51%
- HPLC peak area, RRT 1.04 [1, 16]: 1.98%
- HPLC peak area, QTX125 RRT 1.00 [1, 17]: 88.96%
- HPLC peak area, RRT 1.04 [1, 17]: 6.16%
- HPLC peak area, RRT 1.12 [1, 17]: 3.08%
- HPLC peak area, QTX125 RRT 1.00 [1, 18]: 84.14%
- HPLC peak area, RRT 1.04 [1, 18]: 9.20%
- HPLC peak area, RRT 1.12 [1, 18]: 4.38%
- degradation (in words) [1, 14]: degrades under forced illumination to two principal components
- HPLC peak area, QTX125 RRT 1.00 [2, 19]: 93.18%
- HPLC peak area, RRT 1.04 [2, 19]: 1.50%
- HPLC peak area, RRT 1.12 [2, 19]: 0.97%
- degradation (in words) ([2]; ambient laboratory conditions): degrades
- HPLC peak area, QTX125 RRT 1.00 ([2]; forced illumination, 0 hours): 96.83%
- HPLC peak area, RRT 1.04 ([2]; forced illumination, 0 hours): 1.15%
- HPLC peak area, QTX125 RRT 1.00 ([2]; forced illumination, 3 hours): 98.01%
- HPLC peak area, RRT 1.04 ([2]; forced illumination, 3 hours): 0.71%
- HPLC peak area, RRT 1.12 ([2]; forced illumination, 3 hours): 0.33%
- HPLC peak area, QTX125 RRT 1.00 ([2]; forced illumination, 50 hours): 84.17%
- HPLC peak area, RRT 1.04 ([2]; forced illumination, 50 hours): 1.03%
- HPLC peak area, RRT 1.12 ([2]; forced illumination, 50 hours): 2.14%
- HPLC peak area, QTX125 RRT 1.00 ([2]; forced illumination, 171 hours): 89.96%
- HPLC peak area, RRT 1.04 ([2]; forced illumination, 171 hours): 2.82%
- HPLC peak area, RRT 1.12 ([2]; forced illumination, 171 hours): 1.17%
- degradation (in words) ([2]; forced illumination): degrades
- photostability as compared to amorphous QTX125 and Form 2 ([2]; in solution, amber glass bottles, ambient laboratory conditions, 171 hours): enhanced photostability
- photostability as compared to amorphous QTX125 or Form 2 ([2]; in solution, amber glass bottles, forced illumination, 171 hours): enhanced photostability
- photostability as compared to both QTX125 Form 2 and amorphous QTX125 ([2]; stored in solution (conclusion)): improved photostability
- solubility in a saline solution compared to other forms, including an amorphous form [3]: more soluble
- PXRD analysis of the solid recovered at 24 hours ([3]; aqueous buffer, 37° C.): identified the precipitating entity as Form 2
- concentration of QTX125 (solubility) ([3]; buffer (i) phosphate buffer, pH 3.5, 0.9% w/v sodium chloride, 37° C., 1 hour): 0.28 µg/mL
- concentration of QTX125 (solubility) ([3]; buffer (i) phosphate buffer, pH 3.5, 0.9% w/v sodium chloride, 37° C., 4 hours): 0.33 µg/mL
- concentration of QTX125 (solubility) ([3]; buffer (i) phosphate buffer, pH 3.5, 0.9% w/v sodium chloride, 37° C., 7 hours): 0.23 µg/mL
- concentration of QTX125 (solubility) ([3]; buffer (i) phosphate buffer, pH 3.5, 0.9% w/v sodium chloride, 37° C., 24 hours): 0.34 µg/mL
- concentration of QTX125 (solubility) ([3]; buffer (ii) phosphate buffer, pH 6.5, 0.9% w/v sodium chloride, 37° C., 1 hour): 0.32 µg/mL
- concentration of QTX125 (solubility) ([3]; buffer (ii) phosphate buffer, pH 6.5, 0.9% w/v sodium chloride, 37° C., 4 hours): 0.24 µg/mL
- concentration of QTX125 (solubility) ([3]; buffer (ii) phosphate buffer, pH 6.5, 0.9% w/v sodium chloride, 37° C., 7 hours): 0.39 µg/mL
- concentration of QTX125 (solubility) ([3]; buffer (ii) phosphate buffer, pH 6.5, 0.9% w/v sodium chloride, 37° C., 24 hours): 0.28 µg/mL
- concentration of QTX125 (solubility) ([3]; buffer (iii) acetate buffer, pH 4.5, 0.9% w/v sodium chloride, 37° C., 1 hour): 0.25 µg/mL
- concentration of QTX125 (solubility) ([3]; buffer (iii) acetate buffer, pH 4.5, 0.9% w/v sodium chloride, 37° C., 4 hours): 0.35 µg/mL
- concentration of QTX125 (solubility) ([3]; buffer (iii) acetate buffer, pH 4.5, 0.9% w/v sodium chloride, 37° C., 7 hours): 0.35 µg/mL
- concentration of QTX125 (solubility) ([3]; buffer (iii) acetate buffer, pH 4.5, 0.9% w/v sodium chloride, 37° C., 24 hours): 0.33 µg/mL
- concentration of QTX125 (solubility) ([3]; buffer (iv) citro-phosphate buffer, pH 4.5, 0.9% w/v sodium chloride, 37° C., 1 hour): 0.33 µg/mL
- concentration of QTX125 (solubility) ([3]; buffer (iv) citro-phosphate buffer, pH 4.5, 0.9% w/v sodium chloride, 37° C., 4 hours): 0.29 µg/mL
- concentration of QTX125 (solubility) ([3]; buffer (iv) citro-phosphate buffer, pH 4.5, 0.9% w/v sodium chloride, 37° C., 7 hours): 0.37 µg/mL
- concentration of QTX125 (solubility) ([3]; buffer (iv) citro-phosphate buffer, pH 4.5, 0.9% w/v sodium chloride, 37° C., 24 hours): 0.27 µg/mL
- concentration of QTX125 (solubility) ([3]; buffer (v) sodium chloride, 0.9% w/v, 37° C., 1 hour): 29.81 µg/mL
- concentration of QTX125 (solubility) ([3]; buffer (v) sodium chloride, 0.9% w/v, 37° C., 4 hours): 16.91 µg/mL
- concentration of QTX125 (solubility) ([3]; buffer (v) sodium chloride, 0.9% w/v, 37° C., 7 hours): 8.51 µg/mL
- concentration of QTX125 (solubility) ([3]; buffer (v) sodium chloride, 0.9% w/v, 37° C., 24 hours): 4.52 µg/mL
- concentration of QTX125 (solubility) ([3]; buffer (vi) deionised water, 37° C., 1 hour): 24.5 µg/mL
- concentration of QTX125 (solubility) ([3]; buffer (vi) deionised water, 37° C., 4 hours): 16.22 µg/mL
- concentration of QTX125 (solubility) ([3]; buffer (vi) deionised water, 37° C., 7 hours): 10.14 µg/mL
- concentration of QTX125 (solubility) ([3]; buffer (vi) deionised water, 37° C., 24 hours): 7.76 µg/mL
- solubility (in words) ([3]; buffers (i) to (iv), 37° C.): very low
- peak solubility ([3]; deionised water (buffer vi), 37° C., listed as 1:2 L-Lysine adduct): 24.5 µg/mL
- peak solubility ([3]; deionised water (buffer vi), 37° C., listed as adduct): 24.5 µg/mL
- peak solubility ([3]; sodium chloride 0.9% w/v (buffer v), 37° C., listed as 1:2 L-Lysine adduct): 29.81 µg/mL
- peak solubility ([3]; sodium chloride 0.9% w/v (buffer v), 37° C., listed as adduct): 29.81 µg/mL
